Results from patent US10875867B2, “Cyclic ether derivatives of pyrazolo[1,5-a]pyrimidine-3-carboxyamide” (Boehringer Ingelheim International GmbH, priority 2015, dated 2020).

Assays:
PDE10 = PDE10 (Homo sapiens (Human), UniProt Q9Y233); assay: Phosphodiesterase (PDE) 10 assay with fluorescent substrate (IMAP, fluorescence polarization); format: biochemical; settings: labeled cAMP 30 nM
Description: (§1) The IMAP system (Molecular Device) using fluorescence polarization (FP) as detection principle was used to measure enzyme activity. A fluorescent labeled cAMP was used as substrate for the reaction, generating a labeled AMP. The fluorescent AMP binds specifically to the large M(III)-based nano-particles which reduces the rotational speed of the substrate and thus increases its polarization. Detailed Method: The inhibition of PDE 2A or 10 enzyme activity was assessed using IMAP-Phosphodiesterase-cAMP fluorescence labeled substrate (Molecular Devices, Order No. R7506), IMAP TR-FRET screening express (Molecular Devices, Order No. R8160, the TR-FRET component will not be used) and PDE 2A or PDE10 protein expressed upon baculovirus infection in SF9 cells. […] The cells were collected by centrifugation and the pellet frozen in liquid nitrogen before it was resuspended in PBS containing 1% Triton X-100 and protease inhibitors. After 45 min incubation on ice, the cell debris was removed by centrifugation (13.000 rpm, 30 min). […] All reactions were performed in 384 well plates, Perkin Elmer black optiplates and IMAP reaction buffer with 0.1% Tween20 (kit component) Compounds were serial diluted in DMSO. […] Reaction is stopped by adding of 60 μl binding buffer for FP/cAMP (kit component).

PDE 2A = PDE 2A (Homo sapiens (Human), UniProt O00408); assay: Phosphodiesterase (PDE) 2A assay with fluorescent substrate (IMAP, fluorescence polarization); format: biochemical; settings: labeled cAMP 30 nM, read-out: PDE2 IC50
Description: as §1

PDE10, sequence (Q9Y233 whole entry): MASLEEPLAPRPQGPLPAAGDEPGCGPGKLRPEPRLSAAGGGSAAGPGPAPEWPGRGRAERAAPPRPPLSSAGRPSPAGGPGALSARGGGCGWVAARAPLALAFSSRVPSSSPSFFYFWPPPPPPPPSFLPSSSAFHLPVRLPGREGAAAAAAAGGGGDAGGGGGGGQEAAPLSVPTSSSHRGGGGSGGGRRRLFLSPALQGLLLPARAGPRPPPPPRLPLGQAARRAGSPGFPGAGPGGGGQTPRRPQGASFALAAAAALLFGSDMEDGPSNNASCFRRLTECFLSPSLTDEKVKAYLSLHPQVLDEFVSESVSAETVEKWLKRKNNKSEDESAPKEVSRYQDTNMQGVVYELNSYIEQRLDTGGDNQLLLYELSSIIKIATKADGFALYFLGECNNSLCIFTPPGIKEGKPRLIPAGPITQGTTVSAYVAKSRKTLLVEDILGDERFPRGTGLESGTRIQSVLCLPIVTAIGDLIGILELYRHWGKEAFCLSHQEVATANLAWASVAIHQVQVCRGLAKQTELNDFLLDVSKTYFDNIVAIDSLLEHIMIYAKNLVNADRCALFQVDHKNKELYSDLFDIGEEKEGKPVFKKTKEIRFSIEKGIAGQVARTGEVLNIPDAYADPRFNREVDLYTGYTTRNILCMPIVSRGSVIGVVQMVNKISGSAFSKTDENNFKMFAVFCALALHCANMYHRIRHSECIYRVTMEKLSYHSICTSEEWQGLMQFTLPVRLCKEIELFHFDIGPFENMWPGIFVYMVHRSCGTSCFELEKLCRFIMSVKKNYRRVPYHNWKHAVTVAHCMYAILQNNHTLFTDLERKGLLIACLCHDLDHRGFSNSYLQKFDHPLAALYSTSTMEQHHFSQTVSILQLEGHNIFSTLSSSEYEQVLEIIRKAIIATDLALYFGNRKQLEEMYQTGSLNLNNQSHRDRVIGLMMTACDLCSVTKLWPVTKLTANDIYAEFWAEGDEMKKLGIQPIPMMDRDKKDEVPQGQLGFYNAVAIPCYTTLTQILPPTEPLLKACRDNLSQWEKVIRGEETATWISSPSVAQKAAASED
PDE 2A, sequence (O00408 whole entry, species assumed): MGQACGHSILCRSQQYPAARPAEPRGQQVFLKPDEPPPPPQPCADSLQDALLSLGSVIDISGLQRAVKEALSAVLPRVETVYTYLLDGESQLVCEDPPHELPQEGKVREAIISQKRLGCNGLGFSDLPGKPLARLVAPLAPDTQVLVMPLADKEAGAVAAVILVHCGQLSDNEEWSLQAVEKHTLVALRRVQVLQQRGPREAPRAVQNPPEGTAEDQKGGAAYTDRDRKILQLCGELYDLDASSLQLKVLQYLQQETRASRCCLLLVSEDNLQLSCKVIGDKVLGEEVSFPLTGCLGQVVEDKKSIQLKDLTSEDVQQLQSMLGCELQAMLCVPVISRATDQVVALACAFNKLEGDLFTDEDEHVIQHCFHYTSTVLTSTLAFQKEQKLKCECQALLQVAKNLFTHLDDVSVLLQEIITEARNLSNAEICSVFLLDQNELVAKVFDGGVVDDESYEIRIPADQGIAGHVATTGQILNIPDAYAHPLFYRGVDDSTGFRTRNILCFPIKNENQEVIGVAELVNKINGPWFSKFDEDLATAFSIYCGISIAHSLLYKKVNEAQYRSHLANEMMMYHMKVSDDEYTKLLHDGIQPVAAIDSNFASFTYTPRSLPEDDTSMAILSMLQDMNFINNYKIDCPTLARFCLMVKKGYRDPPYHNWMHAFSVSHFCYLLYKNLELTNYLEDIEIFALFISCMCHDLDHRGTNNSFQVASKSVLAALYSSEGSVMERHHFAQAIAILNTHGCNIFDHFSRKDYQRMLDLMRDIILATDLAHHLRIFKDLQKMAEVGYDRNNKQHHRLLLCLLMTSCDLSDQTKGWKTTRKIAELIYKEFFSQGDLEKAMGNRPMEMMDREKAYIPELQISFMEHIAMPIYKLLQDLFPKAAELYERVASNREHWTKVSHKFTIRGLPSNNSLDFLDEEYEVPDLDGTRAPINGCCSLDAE

IC50 (PDE10) [µM] | IC50 (PDE 2A) [µM] | SMILES
> 10 | 0.022 | O=C(NC1(c2ccc(C(F)(F)F)cc2)CCOCC1O)c1cnn2cc(C3CC3)cnc12 (stereo not shown) [Example 60]
> 10 | 0.124 | Cc1nn2cc(C3CC3)cnc2c1C(=O)NC1(c2ccc(C(F)(F)F)cn2)CCOCC1O (racemic) [Example 63]
